Experimental data as given in patent US20240000765A1, “COMBINATION TREATMENT OF LIVER DISORDERS” (Terns Pharmaceuticals, Inc., priority 2020, published 2024).
Read-outs that look alike come from different tables or passages of the source.

Columns and labels:
[1] = Pharmacokinetic evaluation in rats, intragastric infusion; type: in vivo; conditions: SD rats, intragastric 2 mg/kg
Method: Drug Preparation: a certain amount of the drug was taken and added into a 2% Klucel LF+0.1% Tween 80 aqueous solution, to prepare a clear solution or a uniform suspension.
Dosage: SD rats were fasted overnight and given the drug by intragastric infusion at an administrated dose of 2 mg/kg and an administrated volume of 10 mL/kg each.
Operation: rats were dosed by intragastric infusion with the compounds. […] The heparinized sample tubes were then stored at −20° C., and the rats were allowed to eat food 2 h after the dosage.
Determination of contents of the compounds to be tested in the plasma of rats after intragastric infusion of the drugs at different concentrations: the plasma samples were thawed at room temperature, 50 μL each was taken and added into 130 μL of an internal standard working solution (1000 ng/mL, acetonitrile, tolbutamide), and the mixture was whirled for about 1 min and then centrifugated at 4° C. and 13000 rpm for 10 min. 50 μL of the supernatant was taken and mixed with 100 μL of 50% acetonitrile water, and then introduced for LC/MS/MS analysis.

[2] = test system: FXR-regulated gene expression (SHP, BSEP, FGF-19) in human HuH7 hepatoma cells; test: Cell-based RNA assay of FXR-regulated gene expression; conditions: Huh-7, 11 h at 37° C., RT-qPCR
Method: […]. See Kawamata et al JBC 278 (11)[…] (2003). […]. After 30 min at RT, cAMP was measured using an HTRF readout. EC50 values for FXR-regulated gene expression were determined using a cell-based RNA assay. […] After 11 h at 37° C., RNA was isolated and analyzed by RT-qPCR using primers to FXR-related genes: small heterodimer partner (SHP), bile salt export pump (BSEP) and fibroblast growth factor 19 (FGF-19).

[3] = other FXR agonists; cited from earlier work
[4] = test system: FXR-regulated gene expression in liver and ileum; test: Mechanism of action: tissue RNA by RT-qPCR and RNAseq after a single oral dose; conditions: C57BL/6 mice, 6 hours; for number of differentially expressed NASH-related genes modulated vs vehicle (liver RNAseq): fold change≥1.5
Method: The RNA was analyzed by RT-qPCR and RNAseq.
For RNAseq analysis, mRNA was extracted from total liver and sequenced using standard Illumina library preparation and sequencing protocols. Differentially expressed genes (DEG) were determined using RSEM and edgeR software packages and analyzed using Advaita Bio's iPathwayGuide software.

rat hepatocytes = test: In vitro metabolic stability in cryopreserved hepatocytes (rat); type: in vitro ADME; conditions: Sprague-Dawley rat hepatocytes; well-stirred liver model
Method: (§1) In vitro half-life values were determined and scaled to predict hepatic clearance (CLpred) and hepatic extraction using the well-stirred liver model with no correction for plasma protein as described in Obach et al., The Prediction of Human Pharmacokinetic Parameters from Preclinical and In Vitro Metabolism Data, J. of Pharmacology and Experimental Therapeutics, vol. 283, no. 1, pp. 46-58 (1997).

monkey hepatocytes = test: In vitro metabolic stability in cryopreserved hepatocytes (monkey); type: in vitro ADME; conditions: cynomolgus monkey hepatocytes; well-stirred liver model
Method: as §1

mouse hepatocytes = test: In vitro metabolic stability in cryopreserved hepatocytes (mouse); type: in vitro ADME; conditions: well-stirred liver model
Method: as §1

mouse model of NASH = test: Mouse model of NASH (high fat diet + CCl4), Compound 1
Method: Hematoxylin & Eosin (H&E) and Sirius Red histological staining of liver tissue was used to quantitate NAFLD activity score (NAS), steatosis, ballooning, inflammation and fibrosis. […] Gene expression of RNA was analyzed by RT-qPCR and RNAseq.
NAS is calculated based upon liver steatosis, inflammation, and ballooning and was determined by analysis of liver tissue histology using H&E stain. […] Hepatocellular ballooning is a form of liver cell injury associated with cell swelling and is also measured by H&E stained liver sections. The ballooning score is calculated as follows: 0-no hepatocyte ballooning; 1-few ballooning hepatocytes; 2-many hepatocytes with prominent ballooning.
Liver fibrosis was quantified by histological analysis of the percentage of Sirius Red-positive liver sections. […] Liver triglycerides were measured from liver tissue using a biochemical analyzer (Hitachi-700).

[5] = PK/PD profile, 7 consecutive daily oral doses; type: in vivo; conditions: cynomolgus monkeys, oral 1 mg/kg, 7 consecutive days
[6] = Pharmacokinetics assay, rat (IV and oral); type: in vivo, Sprague-Dawley (SD) rats; conditions: Sprague-Dawley rat, oral 10 mg/kg vs IV 1 mg/kg
From the text: (§2) Results are shown in FIG. 1A (IV administration) and FIG. 1B (oral administration), and in Table 2. […] Smaller Vdss in monkeys is correlated with higher plasma protein binding.

dog hepatocytes = test: In vitro metabolic stability in cryopreserved hepatocytes (dog); type: in vitro ADME; conditions: beagle dog hepatocytes; well-stirred liver model
Method: as §1

[7] = Tissue distribution of radiolabeled (14C) compound after oral dose; type: in vivo; conditions: Long-Evans rats, oral 5 mg/kg (100 μCi/kg), up to 168 hours
Method: Plasma, liver, small intestine, cecum, kidney, lung, heart and skin tissue samples were collected up to 168 hours, and the amount of radioactive material at various time points was measured.

human hepatocytes = test: In vitro metabolic stability in cryopreserved hepatocytes (human); type: in vitro ADME; conditions: well-stirred liver model
Method: as §1

[8] = rat, in vivo, iv, 2 mg/kg
From the text: Blood, liver, kidney, and lung tissue samples were collected from the rats to determine a tissue/plasma ratio.

[9] = Metabolism and excretion of radiolabeled (14C) compound; type: in vivo; conditions: SD rats, oral 5 mg/kg or IV 2 mg/kg
Method: Blood, bile, feces, and urine samples were collected from each rat for up to 168 hours.

[10] = Clinical study, First Study (healthy volunteers, 14 days); type: in vivo; conditions: healthy human volunteers, oral daily 5, 75, 200 or 400 mg
[11] = Pharmacokinetics assay, dog (IV and oral); type: in vivo, beagle dogs; conditions: beagle dog
From the text: as §2

[12] = Clinical study, Second Study (7 days, 7AC4); conditions: for % 7AC4 suppression at nadir: human subjects
THRα = target: T1, THRα (Homo sapiens, UniProt P10827); test: Binding activity to THRα; conditions: read-out: IC50 THRα binding force
T1 sequence (P10827 1-410 isoform P10827-2): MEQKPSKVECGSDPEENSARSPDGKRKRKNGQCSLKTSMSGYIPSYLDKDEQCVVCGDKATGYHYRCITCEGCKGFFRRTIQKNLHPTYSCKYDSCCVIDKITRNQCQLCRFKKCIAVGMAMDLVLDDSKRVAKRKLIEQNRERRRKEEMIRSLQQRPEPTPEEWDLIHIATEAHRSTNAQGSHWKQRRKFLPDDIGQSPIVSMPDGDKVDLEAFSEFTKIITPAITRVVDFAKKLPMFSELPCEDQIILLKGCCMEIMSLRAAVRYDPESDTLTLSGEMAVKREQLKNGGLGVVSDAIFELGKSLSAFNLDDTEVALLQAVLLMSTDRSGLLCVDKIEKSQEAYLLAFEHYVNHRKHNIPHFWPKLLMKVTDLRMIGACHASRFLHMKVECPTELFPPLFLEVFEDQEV

THRβ = target: T2, THRβ (Homo sapiens, UniProt P10828); test: Binding activity to the thyroxine receptor beta; conditions: ratio of binding IC50
T2 sequence (P10828 1-461): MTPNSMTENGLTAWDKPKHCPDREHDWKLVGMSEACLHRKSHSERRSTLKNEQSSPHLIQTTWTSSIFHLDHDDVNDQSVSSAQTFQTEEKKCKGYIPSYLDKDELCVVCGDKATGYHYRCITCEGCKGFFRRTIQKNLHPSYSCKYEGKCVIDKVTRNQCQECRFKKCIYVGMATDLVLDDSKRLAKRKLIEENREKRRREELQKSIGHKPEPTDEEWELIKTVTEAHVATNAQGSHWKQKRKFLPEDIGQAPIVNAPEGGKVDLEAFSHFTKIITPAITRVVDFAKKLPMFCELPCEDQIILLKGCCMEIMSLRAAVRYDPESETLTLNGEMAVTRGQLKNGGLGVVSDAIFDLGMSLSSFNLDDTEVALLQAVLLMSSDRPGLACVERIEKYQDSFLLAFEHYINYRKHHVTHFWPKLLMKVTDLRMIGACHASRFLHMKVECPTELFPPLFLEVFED

[13] = single oral dose, Compound 1 10 mg/kg, OCA 30 mg/kg
[14] = 10, 30, 100 mg/kg oral daily, 28 days
[15] = 10, 30, 100 mg/kg oral daily, 28 days, H&E
[16] = 10, 30, or 100 mg/kg oral daily, 28 days

With CC1(C)CCc2c(Oc3c(Cl)cc(-n4cc(C#N)c(=O)[nH]c4=O)cc3Cl)n[nH]c(=O)c21 [Compound 6] the Curve area [1] was 9242 ± 1245 ng·h/mL and the Time to peak [1] was 5.33 ± 1.15 h.

CC[C@H]1[C@@H](O)[C@@H]2[C@H](CC[C@]3(C)[C@@H]([C@H](C)CCC(=O)O)CC[C@@H]23)[C@@]2(C)CC[C@@H](O)C[C@@H]12 [OCA, obeticholic acid] showed an EC50 ([2]; read-out: BSEP Gene induction/HuH7 EC50) of 200 nM, an EC50 ([2]; read-out: FGF-19 Gene Induction/HuH7 EC50) of 130 nM and an EC50 ([2]; read-out: SHP Gene induction/HuH7 EC50) of 200 nM. The “pruritus in longer term studies” value [3] was “known to result in pruritus”, the “number of global pathways enriched (liver RNAseq)” value [4, 13] was 6 and the “number of differentially expressed NASH-related genes modulated vs vehicle (liver RNAseq)” value [4, 13] was 44.

In the case of Cn1cc(C(=O)O)c2ccc(N3CCC(OCc4c(-c5c(Cl)cccc5Cl)noc4C4CC4)CC3)cc21 [Compound 1], the “Hepatic Extraction” value (rat hepatocytes) is reported as 47.3 ± 0.78%, the “In vitro Metabolic CLpred” value (rat hepatocytes) is reported as 26.2 ± 0.5 mL/min/kg and the “Hepatic Extraction” value (monkey hepatocytes) is reported as 64.4 ± 0.28%. The “In vitro Metabolic CLpred” value (monkey hepatocytes) was 28 ± 0.17 mL/min/kg, the “Hepatic Extraction” value (mouse hepatocytes) was 80.7 ± 1.02% and the “In vitro Metabolic CLpred” value (mouse hepatocytes) was 72.7 ± 1 mL/min/kg. The “BSEP liver expression (CPM) Relative to Vehicle” value (mouse model of NASH; 30 mg/kg, NASH mice) was 5.1, the “CYP7A1 liver expression (CPM) Relative to Vehicle” value (mouse model of NASH; 30 mg/kg, NASH mice) was 0.02 and the “CYP8B1 liver expression (CPM) Relative to Vehicle” value (mouse model of NASH; 30 mg/kg, NASH mice) was 0.007. For the same molecule, the “OST-B liver expression (CPM) Relative to Vehicle” value (mouse model of NASH; 30 mg/kg, NASH mice) was 135.7, the “SHP liver expression (CPM) Relative to Vehicle” value (mouse model of NASH; 30 mg/kg, NASH mice) was 4.6 and the liver triglyceride levels (mouse model of NASH; 100 mg/kg) was “statistically significant reduced”. For the same molecule, the serum triglyceride concentration (mouse model of NASH; 100 mg/kg) was “statically significant reduction”, the “serum ALT level” value (mouse model of NASH; [14]) was “reduced” and the “serum AST level” value (mouse model of NASH; [14]) was “reduced”. The “ballooning vs untreated NASH mice” value (mouse model of NASH; [15]) was “significantly reduced”, the “inflammation vs untreated NASH mice” value (mouse model of NASH; [15]) was “significantly reduced” and the “steatosis vs untreated NASH mice” value (mouse model of NASH; [15]) was “significantly reduced”. The “serum total cholesterol level” value (mouse model of NASH; 10, 30, and 100 mg/kg) was “statistically significant reduction”, the “collagen, type 1, alpha 1 expression in the liver vs control NASH mice” value (mouse model of NASH; 10, 30, or 100 mg/kg) was “decreased” and the “NAFLD Activity Score (NAS) vs untreated NASH mice” value (mouse model of NASH; [16]) was “significantly lower”. The “liver fibrosis (Sirius Red) vs untreated NASH control” value (mouse model of NASH; [16]) was “statistically significant reduced fibrosis”, the “expression of inflammatory and fibrosis related genes” value (mouse model of NASH; mouse model of NASH) was “reduced” and the “pharmacodynamics biomarker 7AC4 after repeated oral dosing” value [5] was “sustained suppression”. The “Oral Bioavailability” value [6] was 21%, the “Hepatic Extraction” value (dog hepatocytes) was 71.0 ± 2.49% and the “In vitro Metabolic CLpred” value (dog hepatocytes) was 22 ± 0.83 mL/min/kg. For the same molecule, the “tissues with the most radioactive material” value [7] was “Liver, small intestine, and cecum had the most radioactive material”, the “Hepatic Extraction” value (human hepatocytes) was 67.0 ± 1.73% and the “In vitro Metabolic CLpred” value (human hepatocytes) was 13.8 ± 3.67 mL/min/kg. For the same molecule, the “change in distribution to the liver on co-administration of rifampin” value [8] was “does not result in a significant change”, the major elimination pathway [9] was “biliary excretion” and the metabolite formed [9] was “acyl glucuronide metabolite”. For the same molecule, the incidences of pruritus [10] was “no incidences of pruritus”, the “induction of FXR-specific genes, liver vs ileum (RT-qPCR)” value ([4]; single oral 10 mg/kg) was “preferentially induces FXR-specific genes in the liver” and the “number of differentially expressed NASH-related genes modulated vs vehicle (liver RNAseq)” value [4, 13] was 500. For the same molecule, the CL ([11]; IV 1 mg/kg) was 9 mL/min/kg, the “Oral Bioavailability” value ([11]; oral 3 mg/kg vs IV 1 mg/kg) was 82% and the Pruritus ([12]; 25 mg daily for 7 days) was “No”. For the same molecule, the Pruritus ([12]; 75 mg daily for 7 days) was “No”, the Pruritus ([12]; 150 mg daily for 7 days) was “No” and the “% 7AC4 suppression at nadir” value ([12]; oral 25 mg daily for 7 days) was 75%. The “% 7AC4 suppression at nadir” value ([12]; oral 75 mg daily for 7 days) was 82%, the “% 7AC4 suppression at nadir” value ([12]; oral 150 mg daily for 7 days) was 93% and the Pruritus ([12]; subjects taking the highest doses of Compound 1) was “no pruritus was observed”.

For N#Cc1nn(-c2cc(Cl)c(Oc3n[nH]c(=O)c4c(Cl)cccc34)c(Cl)c2)c(=O)[nH]c1=O [Compound 7], the IC50 (THRα) was > 10000 nM and the “THRα/β selectivity (factor)” value (THRβ) was >6.80.

For O=C(O)c1cc(F)c2nc(N3[C@@H]4CC[C@H]3C[C@@H](OCc3c(-c5ccccc5OC(F)(F)F)noc3C3CC3)C4)sc2c1 [tropifexor], the “pruritus in longer term studies” value [3] is given as “known to result in pruritus”.

For N#Cc1nn(-c2cc(Cl)c(Oc3n[nH]c(=O)c4c3CCCC4)c(Cl)c2)c(=O)[nH]c1=O [Compound 3], the IC50 (THRα) was > 10000 nM and the “THRα/β selectivity (factor)” value (THRβ) was > 8.1.

For CC(C)c1cc(Oc2c(Cl)cc(-n3nc(C#N)c(=O)[nH]c3=O)cc2Cl)n[nH]c1=O [Reference compound, 2-[3,5-Dichloro-4-(5-isopropyl-6-oxo-1,6-dihydropyridazin-3-yloxy)phenyl]-3,5-dioxo-2,3,4,5-tetrahydro[1,2,4]triazine-6-carbonitrile, reference compound], the Curve area [1] was 12854 ± 961 ng·h/mL, the “Peak blood drug concentration” value [1] was 1163 ± 97.1 ng/mL and the Time to peak [1] was 5.3 ± 1.15 h.

For O=C(O)c1ccnc(N2CC(O)(c3ccc(OCc4c(-c5c(Cl)cccc5Cl)noc4C4CC4)cc3Cl)C2)c1 [cilofexor], the “pruritus in longer term studies” value [3] is given as “known to result in pruritus”.
